The results in this text go back to patent US10092570B2 (Incyte Corporation, priority 2011, dated 2018).

The subject of test [1] is Pfeiffer cell line (diffuse large B cell lymphoma). The test is described as follows: Example B2: Pfeiffer cell proliferation assay. In kind it is cell-based. Conditions: Homo sapiens, Pfeiffer, Pfeiffer cells, [3H]-thymidine incorporation. The method, then:
Pfeiffer cell line (diffuse large B cell lymphoma) are purchased from ATCC (Manassas, Va.) and maintained in the culture medium recommended (RPMI and 10% FBS). To measure the anti-proliferation activity of the compounds, the Pfeiffer cells are plated with the culture medium (2×10^3 cells/well/per 200 μl) into 96-well ultra-low binding plates (Corning, Corning, N.Y.), in the presence or absence of a concentration range of test compounds. After 3-4 days, [^3H]-thymidine (1 μCi/well) (PerkinElmer, Boston, Mass.) in PBS is then added to the cell culture for an additional 12 hours before the incorporated radioactivity is separated by filtration with water through GF/B filters (Packard Bioscience, Meridenj, Conn.) and measured by liquid scintillation counting with a TopCount (Packard Bioscience).

Another test addresses PI3Kδ (p110δ/p85α) (Homo sapiens (Human), UniProt O00329). The test is described as follows: Example A3: PI3Kδ scintillation proximity assay. The format is biochemical. Conditions: scintillation proximity assay, 20 μM ATP, 4 nM PI3Kδ; read-out: PI3Kδ SPA IC50. Summed up:
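p110δ/p85α (4 nM) phosphorylated 20 μM PIP2 with 20 μM ATP plus [γ-33P]ATP in MOPS pH 6.7, MgCl2, DTT, CHAPS, 0.5% DMSO, at RT. Stopped with EDTA/excess ATP, product captured on WGA SPA beads overnight and counted; IC50 from percent control activity versus log inhibitor.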
(In a scintillation proximity assay essentially only radioactivity close to the scintillant gives light.)

Counter-ions that a name gives are not always drawn.

Sequence of PI3Kδ (p110δ/p85α) (O00329 whole entry): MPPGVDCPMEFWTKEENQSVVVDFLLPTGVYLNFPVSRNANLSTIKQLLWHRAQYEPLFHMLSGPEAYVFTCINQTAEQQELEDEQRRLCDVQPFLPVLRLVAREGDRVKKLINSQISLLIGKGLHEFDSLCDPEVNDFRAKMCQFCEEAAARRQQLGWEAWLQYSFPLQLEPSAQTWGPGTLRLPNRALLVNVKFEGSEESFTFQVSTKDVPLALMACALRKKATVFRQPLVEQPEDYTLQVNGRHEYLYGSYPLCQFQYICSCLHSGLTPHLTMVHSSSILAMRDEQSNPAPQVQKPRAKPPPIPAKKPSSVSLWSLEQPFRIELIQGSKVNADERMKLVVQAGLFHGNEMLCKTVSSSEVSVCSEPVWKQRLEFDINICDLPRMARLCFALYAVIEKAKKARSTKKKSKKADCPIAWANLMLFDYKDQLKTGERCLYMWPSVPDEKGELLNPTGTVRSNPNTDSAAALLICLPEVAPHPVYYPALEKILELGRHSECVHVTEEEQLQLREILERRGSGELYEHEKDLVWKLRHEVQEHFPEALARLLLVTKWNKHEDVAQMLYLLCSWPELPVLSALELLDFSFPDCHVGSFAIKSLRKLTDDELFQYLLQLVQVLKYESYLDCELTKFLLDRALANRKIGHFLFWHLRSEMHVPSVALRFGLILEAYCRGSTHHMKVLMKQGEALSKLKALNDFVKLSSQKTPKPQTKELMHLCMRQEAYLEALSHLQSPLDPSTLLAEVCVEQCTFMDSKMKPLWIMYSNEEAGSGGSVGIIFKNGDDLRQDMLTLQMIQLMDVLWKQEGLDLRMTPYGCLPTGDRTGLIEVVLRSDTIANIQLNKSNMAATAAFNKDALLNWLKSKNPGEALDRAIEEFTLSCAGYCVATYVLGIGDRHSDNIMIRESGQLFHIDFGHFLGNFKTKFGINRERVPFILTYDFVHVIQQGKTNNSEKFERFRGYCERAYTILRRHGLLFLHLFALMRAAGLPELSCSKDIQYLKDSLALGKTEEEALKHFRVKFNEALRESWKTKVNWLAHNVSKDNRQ
Sequence of PI3Kδ (p110δ/p85α) (P27986 whole entry partner): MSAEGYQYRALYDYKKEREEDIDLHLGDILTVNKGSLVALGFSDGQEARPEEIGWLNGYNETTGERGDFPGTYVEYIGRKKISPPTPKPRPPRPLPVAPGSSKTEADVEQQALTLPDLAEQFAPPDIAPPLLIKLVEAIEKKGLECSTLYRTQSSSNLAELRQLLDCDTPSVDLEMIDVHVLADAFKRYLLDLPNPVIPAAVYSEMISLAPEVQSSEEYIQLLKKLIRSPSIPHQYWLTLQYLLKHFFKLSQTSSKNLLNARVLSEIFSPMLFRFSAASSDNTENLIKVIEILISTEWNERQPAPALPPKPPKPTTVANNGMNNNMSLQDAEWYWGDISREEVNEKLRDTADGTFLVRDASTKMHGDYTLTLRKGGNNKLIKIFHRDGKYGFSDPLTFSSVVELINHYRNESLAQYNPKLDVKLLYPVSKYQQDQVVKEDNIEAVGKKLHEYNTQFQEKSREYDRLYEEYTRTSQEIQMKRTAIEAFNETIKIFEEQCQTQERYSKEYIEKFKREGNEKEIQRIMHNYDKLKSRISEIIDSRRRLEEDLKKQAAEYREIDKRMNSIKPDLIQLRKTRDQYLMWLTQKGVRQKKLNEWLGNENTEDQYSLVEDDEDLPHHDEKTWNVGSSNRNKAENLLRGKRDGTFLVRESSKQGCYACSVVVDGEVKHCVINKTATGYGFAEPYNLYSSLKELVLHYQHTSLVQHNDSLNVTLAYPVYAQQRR

For the molecule `CCOc1c(C(C)n2nc(C)c3c(N)ncnc32)cc(Cl)c(C)c1-c1cncc(C(=O)N(C)C)c1` (single isomer, unassigned) [Example 196, 5-(3-(1-(4-amino-3-methyl-1H-pyrazolo[3,4-d]pyrimidin-1-yl)ethyl)-5-chloro-2-ethoxy-6-methylphenyl)-N,N-dimethylnicotinamide], the IC50 in test [1] is < 10 nM.

As to `COc1c(C(C)n2nc(C)c3c(N)ncnc32)cc(Cl)c(C#N)c1-c1ccc(C(=O)N(C)C)nc1` (stereo not drawn) [Example 313, 5-{3-[1-(4-amino-3-methyl-1H-pyrazolo[3,4-d]pyrimidin-1-yl)ethyl]-5-chloro-6-cyano-2-methoxyphenyl}-N,N-dimethylpyridine-2-carboxamide], in test [1], the half-maximal inhibitory concentration (IC50) was < 10 nM.

Consider `COc1c(C(C)n2nc(C)c3c(N)ncnc32)cc(Cl)c(Cl)c1C1CN(CCO)C1` (single isomer, unassigned) [Example 300, 2-(3-{3-[1-(4-Amino-3-methyl-1H-pyrazolo[3,4-d]pyrimidin-1-yl)ethyl]-5,6-dichloro-2-methoxyphenyl}azetidin-1-yl)ethano], for which the IC50 in test [1] was < 10 nM.

`CCOc1c(C(C)n2nc(C)c3c(N)ncnc32)cc(Cl)c(C#N)c1C1CNC(=O)C1` (single isomer, unassigned) [Example 349, 4-[1-(4-amino-3-methyl-1H-pyrazolo[3,4-d]pyrimidin-1-yl)ethyl]-6-chloro-3-ethoxy-2-(5-oxopyrrolidin-3-yl)benzonitrile]: the 50% inhibitory concentration (IC50) in test [1] is < 10 nM.

Consider `COc1c(C(C)n2nc(C)c3c(N)ncnc32)cc(Cl)c(F)c1C1CN(C(C)C)C1` (stereo not drawn) [67 (1st peak), 1-{1-[5-Chloro-4-fluoro-3-(1-isopropylazetidin-3-yl)-2-methoxyphenyl]ethyl}-3-methyl-1H-pyrazolo[3,4-d]pyrimidin-4-amine], for which the IC50 in test [1] is < 10 nM.

As to `CCOc1c(C(C)n2nc(C)c3c(N)ncnc32)cc(Cl)c(C#N)c1C1CN(CCO)C1` (stereo not drawn) [Example 219, 4-[1-(4-Amino-3-methyl-1H-pyrazolo[3,4-d]pyrimidin-1-yl)ethyl]-6-chloro-3-ethoxy-2-[1-(2-hydroxyethyl)azetidin-3-yl]benzonitrile], the 50% inhibitory concentration (IC50) in test [1] was < 10 nM.

Regarding `CCOc1c(C(C)n2nc(C)c3c(N)ncnc32)cc(Cl)c(C#N)c1C1CN(CC)C1` (single isomer, unassigned) [Example 214, 4-[1-(4-Amino-3-methyl-1H-pyrazolo[3,4-d]pyrimidin-1-yl)ethyl]-6-chloro-3-ethoxy-2-(1-ethylazetidin-3-yl)benzonitrile], in test [1], the IC50 was < 10 nM.

Take `CCOc1c(C(C)n2nc(C)c3c(N)ncnc32)cc(Cl)c(C#N)c1C1CN(C(C)C)C1` (single isomer, unassigned) [Example 215, 4-[1-(4-Amino-3-methyl-1H-pyrazolo[3,4-d]pyrimidin-1-yl)ethyl]-6-chloro-3-ethoxy-2-(1-isopropylazetidin-3-yl)benzonitrile]: the IC50 in test [1] is < 10 nM.

Turning to `COc1c(C(C)n2nc(C)c3c(N)ncnc32)cc(Cl)c(C#N)c1C1CN(C(C)C)C1` (single isomer, unassigned) [Example 264, 4-[1-(4-Amino-3-methyl-1H-pyrazolo[3,4-d]pyrimidin-1-yl)ethyl]-6-chloro-2-(1-isopropylazetidin-3-yl)-3-methoxybenzonitrile], in test [1], the half-inhibitory concentration (IC50) is < 10 nM.

For the molecule `COc1c(C(C)n2nc(C(F)F)c3c(N)ncnc32)cc(Cl)c(C)c1-c1ccc(C(=O)N(C)C)nc1` (stereo not drawn) [Example 191, 5-(3-{1-[4-Amino-3-(difluoromethyl)-1H-pyrazolo[3,4-d]pyrimidin-1-yl]ethyl}-5-chloro-2-methoxy-6-methylphenyl)-N,N-dimethylpyridine-2-carboxamide], in test [1], the IC50 is < 10 nM.

`CCOc1c(C(C)n2nc(C)c3c(N)ncnc32)cc(Cl)c(F)c1C1CNC(=O)C1` (single isomer, unassigned) [Example 346, 4-{3-[1-(4-amino-3-methyl-1H-pyrazolo[3,4-d]pyrimidin-1-yl)ethyl]-5-chloro-2-ethoxy-6-fluorophenyl}pyrrolidin-2-one]: in test [1], the IC50 is < 10 nM.

As to `COc1c(C(C)n2nc(C)c3c(N)ncnc32)cc(Cl)c(C#N)c1C1CN(CC(C)(C)O)C1` (single isomer, unassigned) [Example 271, 4-[1-(4-Amino-3-methyl-1H-pyrazolo[3,4-d]pyrimidin-1-yl)ethyl]-6-chloro-2-[1-(2-hydroxy-2-methylpropyl)azetidin-3-yl]-3-methoxybenzonitrile], the concentration for half-maximal inhibition (IC50) in test [1] is < 10 nM.

For `CCOc1c(C(C)n2nc(C)c3c(N)ncnc32)cc(Cl)c(C#N)c1C1CN(C(=O)NC)C1` (single isomer, unassigned) [Example 257, 3-{3-[1-(4-Amino-3-methyl-1H-pyrazolo[3,4-d]pyrimidin-1-yl)ethyl]-5-chloro-6-cyano-2-ethoxyphenyl}-N-methylazetidine-1-carboxamide], the IC50 in test [1] was < 10 nM.

For `CCOc1c(C(C)n2nc(C)c3c(N)ncnc32)cc(Cl)c(C#N)c1C1CN(C2CCOC2)C1` (single isomer, unassigned) [Example 228, 4-[1-(4-Amino-3-methyl-1H-pyrazolo[3,4-d]pyrimidin-1-yl)ethyl]-6-chloro-3-ethoxy-2-[1-(tetrahydrofuran-3-yl)azetidin-3-yl]benzonitrile], the IC50 at PI3Kδ (p110δ/p85α) was < 10 nM.

On to `COc1c(C(C)n2ccc(=O)c3c(N)ncnc32)cc(Cl)c(C)c1-c1cccnc1` (racemic) [Example 28, 4-Amino-8-[1-(5-chloro-2-methoxy-4-methyl-3-pyridin-3-ylphenyl)ethyl]pyrido[2,3-d]pyrimidin-5(8H)-one bis(trifluoroacetate)], for which the half-maximal inhibitory concentration (IC50) at PI3Kδ (p110δ/p85α) is < 10 nM.

For `COc1c(C(C)n2nc(C(F)F)c3c(N)ncnc32)cc(C#N)c(C)c1C1CN(CC(F)(F)F)C1` (racemic) [Example 129, 5-{1-[4-Amino-3-(difluoromethyl)-1H-pyrazolo[3,4-d]pyrimidin-1-yl]ethyl}-4-methoxy-2-methyl-3-[1-(2,2,2-trifluoroethyl)azetidin-3-yl]benzonitrile], the IC50 at PI3Kδ (p110δ/p85α) is < 10 nM.

In the case of `CCNC(=O)c1c(C)c(Cl)cc(C(C)n2nc(-c3cc(O)cc(F)c3)c3c(N)ncnc32)c1OCC` (racemic) [Example 88, 3-{1-[4-Amino-3-(3-fluoro-5-hydroxyphenyl)-1H-pyrazolo[3,4-d]pyrimidin-1-yl]ethyl}-5-chloro-2-ethoxy-N-ethyl-6-methylbenzamide], at PI3Kδ (p110δ/p85α), the IC50 was < 10 nM.

On to `CCOc1c(C(C)n2nc(C)c3c(N)ncnc32)cc(Cl)c(C)c1-c1cnn(C)c1` (single isomer, unassigned) [Example 197, 1-(1-(5-chloro-2-ethoxy-4-methyl-3-(1-methyl-1H-pyrazol-4-yl)phenyl)ethyl)-3-methyl-1H-pyrazolo[3,4-d]pyrimidin-4-amine], for which the IC50 at PI3Kδ (p110δ/p85α) was < 10 nM.

As to `COc1c(C(C)n2nc(C)c3c(N)ncnc32)cc(Cl)c(C#N)c1C1CN(C2CCOCC2)C1` (single isomer, unassigned) [Example 277, 4-[1-(4-Amino-3-methyl-1H-pyrazolo[3,4-d]pyrimidin-1-yl)ethyl]-6-chloro-3-methoxy-2-[1-(tetrahydro-2H-pyran-4-yl)azetidin-3-yl]benzonitrile], the concentration for half-maximal inhibition (IC50) on PI3Kδ (p110δ/p85α) is < 10 nM.

On to `COc1c(C(C)n2nc(C)c3c(N)ncnc32)cc(Cl)c(C)c1C1CN([C@H](C)CO)C1` (stereo partly drawn) [Example 156, (2R)-2-(3-{3-[1-(4-Amino-3-methyl-1H-pyrazolo[3,4-d]pyrimidin-1-yl)ethyl]-5-chloro-2-methoxy-6-methylphenyl}azetidin-1-yl)propan-1-ol], for which the half-maximal inhibitory concentration (IC50) on PI3Kδ (p110δ/p85α) was < 10 nM.

Take `CCOc1c(C(C)n2nc(C)c3c(N)ncnc32)cc(Cl)c(C#N)c1C1CN(C(=O)C(C)(C)O)C1` (single isomer, unassigned) [Example 247, 4-[1-(4-Amino-3-methyl-1H-pyrazolo[3,4-d]pyrimidin-1-yl)ethyl]-6-chloro-3-ethoxy-2-[1-(2-hydroxy-2-methylpropanoyl)azetidin-3-yl]benzonitrile]: the IC50 on PI3Kδ (p110δ/p85α) was < 10 nM.

On to `CCOc1c(C(C)n2nc(C)c3c(N)ncnc32)cc(Cl)c(C)c1C1CN(C(=O)[C@H](C)O)C1` (stereo partly drawn) [Example 99, (2S)-1-(3-{3-[1-(4-Amino-3-methyl-1H-pyrazolo[3,4-d]pyrimidin-1-yl)ethyl]-5-chloro-2-ethoxy-6-methylphenyl}azetidin-1-yl)-1-oxopropan-2-ol trifluoroacetate], for which the half-maximal inhibitory concentration (IC50) at PI3Kδ (p110δ/p85α) is < 10 nM.

With `CNC(=O)CCc1c(C)c(Cl)cc(C(C)n2nc(C)c3c(N)ncnc32)c1OC` (single isomer, unassigned) [Example 179, 3-(3-(1-(4-Amino-3-methyl-1H-pyrazolo[3,4-d]pyrimidin-1-yl)ethyl)-5-chloro-2-methoxy-6-methylphenyl)-N-methylpropanamide 2,2,2-trifluoroacetate], the IC50 at PI3Kδ (p110δ/p85α) is < 10 nM.

As to `COc1c(C(C)n2nc(C)c3c(N)ncnc32)cc(Cl)c(C)c1-c1cnn(CCN(C)C)c1` (single isomer, unassigned) [Example 183, 1-[1-(5-Chloro-3-{1-[2-(dimethylamino)ethyl]-1H-pyrazol-4-yl}-2-methoxy-4-methylphenyl)ethyl]-3-methyl-1H-pyrazolo[3,4-d]pyrimidin-4-amine], the IC50 at PI3Kδ (p110δ/p85α) is < 10 nM.

Broadly, the IC50 is the point on the concentration scale where inhibition reaches its midpoint.
